The text below walks through data of patent publication US5977063A, “Alkylated hexapeptides” (Eli Lilly and Company, priority 1998, dated 1999).

Type in all cases: cell-based
For experiment [1], the system named is Streptococcus pneumoniae P1. In words: MIC, standard broth micro-dilution assay, SPN P1. Also noted: unit not given here. The protocol: (§1) The antibacterial efficacy of the present compounds is illustrated by Table II. The minimal inhibitory concentrations (MICs) were determined using a standard broth micro-dilution assay.
Experiment [2] relates to Staphylococcus aureus 446. In words: MIC, standard broth micro-dilution assay, SA 446. Also noted: unit not given here. The protocol:
as §1
On the technique in general: In broth dilution the organism is exposed to a series of concentrations in liquid medium.

In experiment [3] the test system is Staphylococcus haemolyticus 105. The experiment in a line: MIC, standard broth micro-dilution assay, SH 105. More on the design: unit not given here. The protocol:
as §1

The subject of experiment [4] is Enterococcus faecium and faecalis (SENSITIVE). In words: MIC, standard broth micro-dilution assay, SENSITIVE enterococci. More on the design: unit not given here. Particulars: geometric mean of 4-6 isolates. The protocol: as §1
The subject of experiment [5] is Staphylococcus epidermidis 270. In words: MIC, standard broth micro-dilution assay, SE 270. Also noted: unit not given here. Here is the method: as §1
Experiment [6] relates to Staphylococcus aureus 447. In words: MIC, standard broth micro-dilution assay, SA 447. More on the design: unit not given here. The protocol: as §1
Experiment [7] relates to Staphylococcus haemolyticus 415. The experiment in a line: MIC, standard broth micro-dilution assay, SH 415. Also noted: unit not given here. Here is the method: as §1
The test system of experiment [8] is Streptococcus pyogenes C203. In words: MIC, standard broth micro-dilution assay, SPY C203. More on the design: unit not given here. The protocol: as §1
Experiment [9] concerns Staphylococcus aureus 489. In words: MIC, standard broth micro-dilution assay, SA 489. Also noted: unit not given here. Here is the method: as §1
Experiment [10] deals with Enterococcus faecium and faecalis (RESISTANT). Conditions: geometric mean of 4-6 isolates. Here is the method:
as §1

Structures are written as SMILES.

For the compound `C[C@@H]1O[C@@H](O[C@@H]2c3ccc(c(Cl)c3)Oc3cc4cc(c3O[C@@H]3O[C@H](CO)[C@@H](O)[C@H](O)[C@H]3O[C@H]3C[C@](C)(NCc5ccc(-c6ccc(Cl)cc6)cc5)[C@@H](O)[C@H](C)O3)Oc3ccc(cc3Cl)[C@@H](O)[C@@H](NCCCCCCc3ccccc3)C(=O)N[C@@H](CC(N)=O)C(=O)N[C@H]4C(=O)N[C@H]3C(=O)N[C@@H]2C(=O)N[C@H](C(=O)O)c2cc(O)cc(O)c2-c2cc3ccc2O)C[C@](C)(N)[C@H]1O` [Example 28, N^1 -(6-PHENYL-n-HEXYL)-N^DISACC -(p-(p-CHLOROPHENYL)BENZYL)DESLEUCYL-A82846B], the “Minimal Inhibitory Concentration (MIC) SPN P1” value in experiment [1] turned out to be 16. The “Minimal Inhibitory Concentration (MIC) SA 446” value in experiment [2] is on record as 8. Moreover, the “Minimal Inhibitory Concentration (MIC) SH 105” value in [3] is 4. Besides, in experiment [4], the “Minimal Inhibitory Concentration (MIC) SENSITIVE” value came out at 7. For the same compound, the “Minimal Inhibitory Concentration (MIC) SE 270” value in experiment [5] was determined as 4. Moreover, the “Minimal Inhibitory Concentration (MIC) SA 447” value in [6] amounted to 8. Also, the “Minimal Inhibitory Concentration (MIC) SH 415” value in [7] is 2. The “Minimal Inhibitory Concentration (MIC) SPY C203” value in experiment [8] is given as 4. Also, in experiment [9], the “Minimal Inhibitory Concentration (MIC) SA 489” value was found to be 8. For the same compound, the “Minimal Inhibitory Concentration (MIC) RESISTANT” value in [10] is given as 6.7.
